Source: patent US20010034362A1, “Pyrrolidine derivatives for vision and memory disorders” (Guilford Pharmaceuticals Inc., priority 1998, published 2001)
Where two headings read alike, the source gives them in different places.

Key:
FKBP12 = FKBP12 (Homo sapiens, UniProt P62942); experiment: Inhibition of peptidyl-prolyl isomerase (rotamase) activity of FKBP, chymotrypsin-coupled assay, apparent Ki; assay type: biochemical
From the text: The inhibition of the prolyl peptidyl cis-trans isomerase activity of FKBP may be measured as an indicator of this affinity. Inhibition of the peptidyl-prolyl isomerase (rotamase) activity of the compounds used in the inventive methods and pharmaceutical compositions can be evaluated by known methods described in the literature (Harding et al., Nature, 1989, 341:758-760; Holt et al. J. Am. Chem. Soc., 115:9923-9938). […] The cis-trans isomerization of an alanine-proline bond in a model substrate, N-succinyl-[…]-nitroanilide, is monitored spectrophotometrically in a chymotrypsin-coupled assay, which releases para-nitroanilide from the trans form of the substrate. […] The reaction is initiated by the addition of […] of substrate (succinyl-[…]-nitroanilide, 5 mg/ml in 2.35 mM LiCl in trifluoroethanol).

[1] = Clearance (Table V comments); assay type: in vitro ADME
[2] = system: retinal ganglion cell axons; experiment: Protection of retinal ganglion cell axons from degeneration following optic nerve transection (Table V); assay type: in vivo; conditions: ± SEM
From the text: Efficacy of representative compounds from different immunophilin ligand series in protecing retinal gangiou cell axons from degeneration following optic nerve transection is set forth in Table V.

[3] = apparent Ki, rotamase inhibition, Table A, read-out: K1
[4] = Table V comments, read-out: Ki rotamase

Sequence of FKBP12 (P62942 whole entry, species assumed): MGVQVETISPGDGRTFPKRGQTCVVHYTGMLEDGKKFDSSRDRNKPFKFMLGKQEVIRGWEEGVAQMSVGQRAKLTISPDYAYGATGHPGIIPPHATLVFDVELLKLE

Compound	Ki (FKBP12; [3])	Clearance [1]	other results
O=C(OCCCc1cccnc1)[C@@H]1CCCN1C(=S)NC1CCCCC1 [I]	–	8.0 µL/min	Ki (FKBP12; [4]): 131 nM
CCC(C)(C)C(=O)C(=O)N1CCCC[C@H]1C(=O)SCCC(c1ccccc1)c1ccccc1 [K]	–	5.2 µL/min	RT97 + RGC axon density 14 days after ON transection (% ON axons rescued) [2]: 7.8% ± 3.0% SEM
CCC(C)(C)C(=O)C(=O)N1CCCC1C(=O)OC(CCc1ccccc1)CCc1ccccc1 (stereo not drawn) [E]	–	41.8 µL/min	RT97 + RGC axon density 14 days after ON transection (% ON axons rescued) [2]: 56.6% ± 9.4% SEM
CCC(C)(C)C(=O)C(=O)N1CCC[C@H]1C(=O)SCCC(c1ccccc1)c1ccccc1 [M]	–	12.5 µL/min	RT97 + RGC axon density 14 days after ON transection (% ON axons rescued) [2]: −6.3% + 3.9 SEM
O=C(OCCCc1ccccc1)[C@@H]1CCCN1S(=O)(=O)Cc1ccccc1 [D]	–	–	RT97 + RGC axon density 14 days after ON transection (% ON axons rescued) [2]: 58.4% ± 6.4% SEM
CCC(C)(C)C(=O)C(=O)N1CCC[C@H]1C(=O)OCCCc1ccccc1 [Compound 1, 3-Phenyl-1-propyl (2S)-1-(3,3-dimethyl-1,2-dioxopentyl)-2-pyrrolidinecarboxylate]	42 nM	–	–
O=C(SCCCc1ccccc1)[C@@H]1CCCN1S(=O)(=O)Cc1ccccc1 [C]	–	31.1 µL/min	Ki (FKBP12; [4]): 107 nM; RT97 + RGC axon density 14 days after ON transection (% ON axons rescued) [2]: 60.4% ± 3.1% SEM
CCC(C)(C)C(=O)C(=O)N1CCC[C@H]1C(=O)CCCCc1cccnc1 [J]	–	1.5 µL/min	–
CN(C)C(=O)N1CCC[C@H]1C(=O)SCCCc1ccccc1 [N]	–	21.9 µL/min	Ki (FKBP12; [4]): 722 nM
O=C(SCCCc1ccccc1)[C@@H]1CCCN1C(=O)NC12CC3CC(CC(C3)C1)C2 [B]	–	–	Ki (FKBP12; [4]): 149 nM
O=C(C(=O)N1CCCC1C(=O)OCCC(c1ccccc1)c1ccccc1)C1CCCCC1 [Compound 29, 3,3-Diphenyl-1-propyl (2S)-1-cyclohexyl glyoxyl-2-pyrrolidinecarboxylate]	20 nM	–	–
CCC(C)(C)C(=O)C(=O)N1CCC[C@H]1C(=O)O [L]	–	5.2 µL/min	RT97 + RGC axon density 14 days after ON transection (% ON axons rescued) [2]: 7.8% ± 3.0% SEM
CCC(C)(C)C(=O)C(=O)N1CCS[C@@H]1C(=O)OCCCc1cccnc1 [F]	–	–	Ki (FKBP12; [4]): 272 nM

Second part, led by results:

Ki (FKBP12; [3])	Compound	Clearance [1]	other results
1970 nM	O=C(C(=O)N1CCCC1C(=O)OCCCc1ccccc1)c1ccccc1 [Compound 13, 3-phenyl-1-propyl (2S)-1-(1,2-dioxo-2-phenyl)ethyl-2-pyrrolidinecarboxylate]	–	–
92 nM	O=C(C(=O)N1CCCC1C(=O)OCCCc1ccccc1)c1cccs1 [Compound 11, 3-phenyl-1-propyl (2S)-1-(1,2-dioxo-2-[2-thienyl])ethyl-2-pyrrolidinecarboxylate]	–	–
600 nM	CCC(C)(C)C(=O)C(=O)N1CCCC1C(=O)OCC=CC1CCCCC1 [Compound 8, 3-cyclohexyl-1-prop-2-(E) -enyl (2S) -1-(3,3-dimethyl-1,2-doxopentyl)-2-pyrrolidinecarboxylate]	–	–
160 nM	CCC(C)(C)C(=O)C(=O)N1CCCC1C(=O)OCC=Cc1ccc2c(c1)OCO2 [Compound 6, 3-(4,5-methylenedioxyphenyl)-1-prop-2-(E)-enyl (2S)-1-(3,3-dimethyl-1,2-dioxopentyl)-2-pyrrolidinecarboxylate]	–	–
100 nM	O=C(C(=O)N1CCCC1C(=O)OCCCc1ccccc1)c1nccs1 [Compound 12, 3-phenyl-1-propyl (2S)-1-(1,2-dioxo-2-[2-thiazolyl])ethyl-2-pyrrolidinecarboxylate]	–	–
125 nM	CCC(C)(C)C(=O)C(=O)N1CCCC1C(=O)OCC=Cc1ccccc1 [Compound 2, 3-phenyl-1-prop-2-(E)-enyl (2S)-1-(3,3-dimethyl-1,2-dioxopentyl)-2-pyrrolidinecarboxylate]	–	–
450 nM	CCC(C)(C)C(=O)C(=O)N1CCCC1C(=O)OCC=Cc1cc(OC)ccc1OC [Compound 15, 3-(2,5-dimethoxyphenyl)-1-prop-2-(E)-enyl (2S)-1-(3,3-dimethyl-1,2-dioxopentyl)-2-pyrrolidine-carboxylate]	–	–
150 nM	O=C(C(=O)N1CCCC1C(=O)OCCC(c1ccccc1)c1ccccc1)c1cccs1 [Compound 30, 3,3-Diphenyl-1-propyl (2S) -1-(2-thienyl) glyoxyl-2-pyrrolidinecarboxylate]	–	–
65 nM	CCC(C)(C)C(=O)C(=O)N1CCCC1C(=O)OCC=Cc1cc(OC)c(OC)c(OC)c1 [Compound 4, 3-(3,4,5-trimethoxyphenyl)-1-prop-2-(E)-enyl (2S)-1-(3,3-dimethyl-1,2-dioxopentyl)-2-pyrrolidine carboxylate]	–	–
